Assays:
succinate dehydrogenase = target: T1, succinate dehydrogenase (Sus scrofa, UniProt A5GZW8+D0VWV4+Q007T0); test: Enzyme activity assay, succinate dehydrogenase (DCIP reduction); assay type: biochemical, porcine; settings: read-out: Inhibitors (10 μM, SQR)
T1 construct: isolated from porcine hearts; from tissue; host or cells: porcine heart
Description: The inhibitory activities of control agents and target compounds on succinate dehydrogenase are determined.
The enzyme used in this test example is succinate dehydrogenase, which is isolated from porcine hearts.
The test method comprises the following steps: The total volume of the system is 1.8 ml, and the system contained 100 mM Na2HPO4—NaH2PO4 buffer (pH=7.4), 0.3 mM EDTA, 20 mM sodium succinate, 53 μM DCIP (2,6-dichloroindophenol sodium), and 2 nM succinate dehydrogenase. Thermostatic waterbath at 23° C. and magnetic stirring at 600 rpm. The decrease in the light absorption of the substrate DCIP is monitored at a wavelength of 600 nm and experimental points in a linear range are collected. Control substrate consumption not more than 5% of the experimental points. The molar extinction coefficient of DCIP is 21 mM^−1 cm^−1. And calculating the reduction yield of the DCIP in the reaction time, fitting a linear slope, and deducting the baseline slope to obtain the initial reaction speed.

Erysiphe graminis = Erysiphe graminis potting method; assay type: in vivo; settings: Blumeria graminis; 100 mg/L; read-out: Erysiphe graminis control rating
Description: The fungicidal activity of the control agents and target compounds are determined. The test and investigation method refers to SOP-SC-1116 Erysiphe graminis potting method in disinfectant rolls written by KANGZHUO and GUBAOGEN in “Standard operation specification for testing biological activity of pesticides”.

Sphaerotheca fuliginea = Sphaerotheca fuliginea potting method; assay type: in vivo; settings: Podosphaera fuliginea; 100 mg/L; read-out: Sphaerotheca fuliginea control rating
Description: The fungicidal activity of the control agents and target compounds are determined. The test and investigation method refers to SOP-SC-1101 sphaerotheca fuliginea potting method in disinfectant rolls written by KANGZHUO and GUBAOGEN in “Standard operation specification for testing biological activity of pesticides”.

T1 sequence (Q0QF01 43-664 partner): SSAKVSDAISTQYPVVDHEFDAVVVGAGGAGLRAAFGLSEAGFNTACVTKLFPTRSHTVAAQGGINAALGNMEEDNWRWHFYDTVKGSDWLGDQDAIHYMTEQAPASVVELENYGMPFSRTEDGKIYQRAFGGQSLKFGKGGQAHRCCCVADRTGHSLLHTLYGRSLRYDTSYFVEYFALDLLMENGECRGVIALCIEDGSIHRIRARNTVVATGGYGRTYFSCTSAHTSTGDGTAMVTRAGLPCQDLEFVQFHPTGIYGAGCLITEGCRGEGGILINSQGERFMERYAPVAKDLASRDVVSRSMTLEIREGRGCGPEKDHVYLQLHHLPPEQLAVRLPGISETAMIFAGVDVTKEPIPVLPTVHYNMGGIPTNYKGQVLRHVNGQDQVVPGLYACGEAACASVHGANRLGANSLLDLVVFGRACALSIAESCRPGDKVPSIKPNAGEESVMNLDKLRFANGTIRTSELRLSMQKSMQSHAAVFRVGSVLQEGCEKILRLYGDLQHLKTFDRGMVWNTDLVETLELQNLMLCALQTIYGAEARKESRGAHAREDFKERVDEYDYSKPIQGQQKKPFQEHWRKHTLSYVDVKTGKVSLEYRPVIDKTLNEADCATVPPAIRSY
T1 sequence (Q007T0 29-280): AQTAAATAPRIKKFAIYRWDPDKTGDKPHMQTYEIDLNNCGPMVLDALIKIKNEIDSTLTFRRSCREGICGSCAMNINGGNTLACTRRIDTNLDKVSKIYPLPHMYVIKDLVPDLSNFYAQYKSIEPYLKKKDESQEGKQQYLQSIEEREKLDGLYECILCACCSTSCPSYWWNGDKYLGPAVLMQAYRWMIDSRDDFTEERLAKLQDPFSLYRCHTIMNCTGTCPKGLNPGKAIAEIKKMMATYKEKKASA
T1 sequence (D0VWV4 30-169): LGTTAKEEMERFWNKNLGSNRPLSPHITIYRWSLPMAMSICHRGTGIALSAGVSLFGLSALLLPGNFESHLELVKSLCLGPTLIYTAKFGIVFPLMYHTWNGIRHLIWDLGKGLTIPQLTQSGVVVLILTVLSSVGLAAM
T1 sequence (A5GZW8 57-159 limits assumed): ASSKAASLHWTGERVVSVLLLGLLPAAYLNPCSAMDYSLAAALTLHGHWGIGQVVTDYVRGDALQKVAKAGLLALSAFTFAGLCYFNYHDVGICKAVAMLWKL

SMILES	inhibition at 10 µM (succinate dehydrogenase) [%]	pest or weed control at 100 µg/mL (Erysiphe graminis) [%]	pest or weed control at 100 µg/mL (Sphaerotheca fuliginea) [%]
C=C(c1ccccc1C(F)(F)F)C(C)N(C(=O)c1c(C(F)F)nn(C)c1F)C1CC1 (stereo not drawn) [Compound 71]	> 90	80 to 100	80 to 100
C=C(CN(C(=O)c1c(C(F)F)nn(C)c1F)C1CC1)c1cccc(Cl)c1 [Compound 16]	> 90	80 to 100	70 to 80
CCS(=O)(=O)c1cccc(C(CN(C(=O)c2c(C(F)F)nn(C)c2F)C2CC2)=C(Cl)Cl)c1 [Compound 164]	> 90	80 to 100	80 to 100
C=C(CN(C(=O)c1c(C(F)F)nn(C)c1F)C1CC1)c1ccccc1C [Compound 6]	> 90	80 to 100	80 to 100
C=C(CN(C(=O)c1c(C(F)F)nn(C)c1F)C1CC1)c1c(Br)cc(Br)cc1Br [Compound 31]	> 90	80 to 100	80 to 100
C=C(CN(C(=O)c1c(C(F)F)nn(C)c1F)C1CC1)c1ccc(Br)cc1 [Compound 27]	> 90	80 to 100	80 to 100
C=C(CN(C(=O)c1c(C(F)F)nn(C)c1F)C1CC1)c1ccc(S(=O)(=O)CC)cc1 [Compound 52]	> 90	80 to 100	80 to 100
Cn1nc(C(F)F)c(C(=O)N(CC(=C(Cl)Cl)c2ccc(S(C)(=O)=O)cc2Cl)C2CC2)c1F [Compound 159]	> 90	80 to 100	80 to 100
Cn1nc(C(F)F)c(C(=O)N(CC(=C(Cl)Cl)c2cc(Br)ccc2Br)C2CC2)c1F [Compound 135]	> 90	80 to 100	80 to 100
Cn1nc(C(F)F)c(C(=O)N(CC(=C(Cl)Cl)c2ccccc2Cl)C2CC2)c1F [Compound 116]	> 90	80 to 100	80 to 100
Cn1nc(C(F)F)c(C(=O)N(CC(=C(Cl)Cl)c2cccc(S(C)(=O)=O)c2)C2CC2)c1F [Compound 160]	> 90	80 to 100	80 to 100
C=C(CN(C(=O)c1c(C(F)F)nn(C)c1F)C1CC1)c1cccc(C(F)(F)F)c1Cl [Compound 46]	> 90	80 to 100	80 to 100
Cn1nc(C(F)F)c(C(=O)N(CC(=C(Cl)Cl)c2ccc(F)cc2Cl)C2CC2)c1F [Compound 154]	> 90	80 to 100	80 to 100
CCS(=O)(=O)c1ccc(C(CN(C(=O)c2c(C(F)F)nn(C)c2F)C2CC2)=C(Cl)Cl)cc1 [Compound 163]	> 90	80 to 100	80 to 100
Cn1nc(C(F)F)c(C(=O)N(CC(=C(Cl)Cl)c2ccc(Cl)cc2)C2CC2)c1Cl [Compound 113]	> 90	80 to 100	80 to 100
Cn1nc(C(F)F)c(C(=O)N(CC(=C(Cl)Cl)c2cc(Cl)ccc2Cl)C2CC2)c1F [Compound 119]	> 90	80 to 100	80 to 100
C=C(CN(C(=O)c1c(C(F)F)nn(C)c1F)C1CC1)c1ccc(Br)cc1Br [Compound 28]	> 90	80 to 100	80 to 100

Continued, in another order:

inhibition at 10 µM (succinate dehydrogenase) [%]	SMILES	pest or weed control at 100 µg/mL (Erysiphe graminis) [%]	pest or weed control at 100 µg/mL (Sphaerotheca fuliginea) [%]
> 90	Cc1ccc(C(C)C)cc1C(=C(Cl)Cl)C(C)N(C(=O)c1c(C(F)F)nn(C)c1F)C1CC1 (stereo not drawn) [Compound 197]	80 to 100	80 to 100
> 90	C=C(c1ccc(F)cc1Cl)C(C)N(C(=O)c1c(C(F)F)nn(C)c1F)C1CC1 (stereo not drawn) [Compound 98]	80 to 100	80 to 100
> 90	C=C(c1ccc(Cl)cc1Cl)C(C)N(C(=O)c1c(C(F)F)nn(C)c1F)C1CC1 (stereo not drawn) [Compound 67]	80 to 100	80 to 100
> 90	Cc1cc(C)c(C(CN(C(=O)c2c(C(F)F)nn(C)c2F)C2CC2)=C(Cl)Cl)c(C)c1 [Compound 143]	80 to 100	80 to 100
> 90	C=C(c1c(F)cc(F)cc1F)C(C)N(C(=O)c1c(C(F)F)nn(C)c1F)C1CC1 (stereo not drawn) [Compound 79]	80 to 100	80 to 100
> 90	Cc1ccc(C(=C(Cl)Cl)C(C)N(C(=O)c2c(C(F)F)nn(C)c2F)C2CC2)cc1 (stereo not drawn) [Compound 203]	80 to 100	80 to 100
> 90	Cc1cc(C)cc(C(=C(Cl)Cl)C(C)N(C(=O)c2c(C(F)F)nn(C)c2F)C2CC2)c1 (stereo not drawn) [Compound 205]	80 to 100	80 to 100
> 90	Cc1cc(C)cc(C(CN(C(=O)c2c(C(F)F)nn(C)c2F)C2CC2)=C(Cl)Cl)c1 [Compound 152]	80 to 100	80 to 100
> 90	Cc1ccc(C(C)C)cc1C(CN(C(=O)c1c(C(F)F)nn(C)c1F)C1CC1)=C(Cl)Cl [Compound 144]	80 to 100	80 to 100
> 90	Cc1ccc(C(CN(C(=O)c2c(C(F)F)nn(C)c2F)C2CC2)=C(Cl)Cl)c(C)c1 [Compound 140]	80 to 100	80 to 100
> 90	C=C(c1ccc(C(F)(F)F)cc1Cl)C(C)N(C(=O)c1c(C(F)F)nn(C)c1F)C1CC1 (stereo not drawn) [Compound 102]	80 to 100	80 to 100
> 90	CC(C(=C(Cl)Cl)c1ccc(Br)c(Br)c1)N(C(=O)c1c(C(F)F)nn(C)c1F)C1CC1 (stereo not drawn) [Compound 191]	80 to 100	80 to 100
> 90	C=C(c1cc(F)cc(F)c1)C(C)N(C(=O)c1c(C(F)F)nn(C)c1F)C1CC1 (stereo not drawn) [Compound 63]	80 to 100	80 to 100
> 90	CC(C(=C(Cl)Cl)c1ccc(C#CC2CC2)cc1Cl)N(C(=O)c1c(C(F)F)nn(C)c1F)C1CC1 (stereo not drawn) [Compound 218]	80 to 100	80 to 100
> 90	CC(C(=C(Cl)Cl)c1cc(F)ccc1F)N(C(=O)c1c(C(F)F)nn(C)c1F)C1CC1 (stereo not drawn) [Compound 180]	80 to 100	80 to 100
> 90	C=C(c1c(F)cccc1F)C(C)N(C(=O)c1c(C(F)F)nn(C)c1F)C1CC1 (stereo not drawn) [Compound 78]	80 to 100	80 to 100
> 90	C=C(c1cc(Cl)ccc1F)C(C)N(C(=O)c1c(C(F)F)nn(C)c1F)C1CC1 (stereo not drawn) [Compound 99]	80 to 100	80 to 100
> 90	C=C(c1c(C)cc(C)cc1C)C(C)N(C(=O)c1c(C(F)F)nn(C)c1F)C1CC1 (stereo not drawn) [Compound 91]	80 to 100	80 to 100
> 90	C=C(c1cccc(S(C)(=O)=O)c1)C(C)N(C(=O)c1c(C(F)F)nn(C)c1F)C1CC1 (stereo not drawn) [Compound 104]	80 to 100	80 to 100
> 90	CC(C(=C(Cl)Cl)c1cccc(S(C)(=O)=O)c1)N(C(=O)c1c(C(F)F)nn(C)c1F)C1CC1 (stereo not drawn) [Compound 213]	80 to 100	80 to 100
> 90	Cc1cccc(C)c1C(CN(C(=O)c1c(C(F)F)nn(C)c1F)C1CC1)=C(Cl)Cl [Compound 142]	80 to 100	80 to 100
> 90	CC(C(=C(Cl)Cl)c1cccc(Cl)c1)N(C(=O)c1c(C(F)F)nn(C)c1F)C1CC1 (stereo not drawn) [Compound 169]	80 to 100	80 to 100
> 90	C=C(c1ccccc1F)C(C)N(C(=O)c1c(C(F)F)nn(C)c1F)C1CC1 (stereo not drawn) [Compound 58]	80 to 100	80 to 100
> 90	C=C(c1cc(C(F)(F)F)ccc1Cl)C(C)N(C(=O)c1c(C(F)F)nn(C)c1F)C1CC1 (stereo not drawn) [Compound 100]	80 to 100	80 to 100
> 90	CC(C(=C(Cl)Cl)c1ccc(C#CC2CC2)cc1F)N(C(=O)c1c(C(F)F)nn(C)c1F)C1CC1 (stereo not drawn) [Compound 219]	80 to 100	80 to 100

From US12540118B2, “Dendrene amide compound, bactericide and use thereof” (Jiangsu Flag Chemical Industry Co., Ltd., priority 2020, dated 2026)
